These results are taken from paper PMC11944986, “Parenteral Nanoemulsion for Optimized Delivery of GL-II-73 to the Brain—Comparative In Vitro Blood–Brain Barrier and In Vivo Neuropharmacokinetic Evaluation” (Pharmaceutics, 2025).

Series [1] in a line: In vivo neuropharmacokinetic study, plasma and brain, intraperitoneal administration. Set-up: species or system Sprague Dawley rats. The note with it: rat; for availability in the brain (AUC0–36) higher after nanoemulsion compared to the solution: intraperitoneal administration; for AUC 0-36: brain.
Protocol: The neuropharmacokinetic study was performed after intraperitoneal administration of the optimized nanoemulsion (NE4) or a 2 mg/mL GL-II-73 solution (solvent consisting of 14% (w/v) propylene glycol and 1% (w/v) polysorbate 80 in ultrapure water). Female Sprague Dawley rats, approximately two months old and weighing 160–200 g, were housed four per cage. The animal room was kept at a temperature of 22 ± 1 °C and a relative humidity of 40–70%. The alternation of light and darkness took place in a 12 h rhythm (light at 6:00 a.m.) with an illumination of 120 lx.
The test animals were divided into two groups of 27 rats each (3 animals per time point). One group received the GL-II-73 solution, the other group the GL-II-73 nanoemulsion, each at a dose of 10 mg/kg. At predefined intervals (5 min, 15 min, 30 min, 1 h, 2 h, 4 h, 8 h, 16 h, and 36 h), the animals were anesthetized with ketamine hydrochloride 90 mg/kg (Ketamidor, Richter Pharma AG, Vienna, Austria) and blood and brain samples were taken. Blood was collected by cardiac puncture with heparinized syringes and centrifuged at 1000× g for 10 min (MiniSpin® plus centrifuge, Eppendorf, Hamburg, Germany) to separate plasma. The isolated brains were weighed and homogenized in 1 mL methanol using an ultrasonic probe. The homogenized brain samples were subsequently centrifuged at 3400× g for 20 min to collect the supernatants. Plasma and the supernatants of the brain homogenates were further purified by solid phase extraction using Oasis HLB cartridges (Waters Corporation, Milford, MA, USA). The cartridges were preconditioned with methanol and then with water prior to application of the sample and internal standard. […] The concentration of GL-II-73 and its metabolite MP-III-022 was quantified in the eluates by liquid chromatography–tandem mass spectrometry (LC-MS/MS).
Series [2] relates to in vitro model of the blood–brain barrier based on human induced pluripotent stem cell-derived microvascular endothelial cells, astrocytes, and pericytes. Put plainly: In vitro BBB permeability test (iCell Blood-Brain Barrier Kit, tricellular model). The class given is in vitro ADME. The note with it: Pe of nanoemulsion vs solution.
Description: The iCell® Blood-Brain Barrier Kit (FUJIFILM Cellular Dynamics, Inc., Madison, WI, USA) contained the following: iCell Astrocytes, iCell BMEC (Brain Microvascular Enothelial Cells), iCell Pericytes, iCell Astrocytes & iCell Pericytes Medium, iCell BMEC Maintenance Medium, and iCell Plating Supplement 500×. […]
The iCell® Blood-Brain Barrier Kit (FUJIFILM Cellular Dynamics, Madison, WI, USA) contained astrocytes, pericytes, and brain microvascular endothelial cells. […] For comparison, the contribution of the carrier itself was evaluated using a GL-II-73 solution in ultrapure water.
The transendothelial electrical resistance (TEER) parameter was used to verify the integrity of the barrier. […] The measured TEER values were corrected with TEER values from wells with empty filters and the medium. The final TEER values (Ω × cm^2) were calculated by adjusting the corrected TEER values to the filter surface. […] For this purpose, 100 µL was taken from the basolateral side (containing 1 mL iCell Maintenance Medium) to be analyzed by LC/MS-MS. […]
The Pe parameter (permeability coefficient; cm/min) was calculated as described earlier [19, 20] and used to evaluate the rate and the effectiveness of GL-II-73 transport through the BBB. […]
The Pe value was determined by dividing the Pse values by the surface area of the membrane of the insert (cm^2).
The nature of series [3]: Solubility of GL-II-73 in various media, shake flask method. The settings on record: thermodynamic from solid. It counts as physicochemical. The method, then: The solubility of GL-II-73 was investigated in various media using the shake flask method. In brief, GL-II-73 was added in excess and mixed overnight on the vortex, followed by centrifugation to remove any excess of undissolved drug. The supernatants were then diluted in methanol and GL-II-73 content was determined by the LC/MS-MS method.
A liquid chromatographic system, the Accela 1000 (Thermo Fisher Scientific, San Jose, CA, USA), which includes a quaternary pump and an autosampler, was used for chromatographic analyses. All runs were performed with an XTERRA® MS C18 column (150 mm × 2.1 mm, 3.5 µm; Waters, Dublin, Ireland) maintained at 25 °C. Samples were stored in the autosampler temperature-controlled compartment at 8 °C. Isocratic elution was performed with a mixture of acetonitrile and 0.1% aqueous formic acid (60:40, v/v) at a flow rate of 300 µL/min. The total analysis time was 4.5 min. Mass spectrometric analyses were performed using a TSQ Quantum Access MAX (Thermo Fisher Scientific, Waltham, MA, USA) triple-quadrupole spectrometer equipped with a heated electrospray ionization (HESI) source. Operating conditions of the MS were optimized as follows: the spray voltage was set to 4000 V, with a skimmer offset of 0 V; the evaporator and capillary temperatures were set to 350 °C and 300 °C, respectively; nitrogen was used as both the nebulizer and auxiliary gas, with flow rates of 50 and 10 arbitrary units, respectively; and the collision gas pressure in q2 was maintained at 1.4 mTorr of argon. Data acquisition was performed with Selected Reaction Monitoring (SRM) in positive scan mode. The [M + H]^+ transitions m/z of SRM were 387.2 → 342.2 (CE 21 V), 373.1 → 314.0 (CE 29 V), and 347.0 → 302.0 (CE 28 V) for GL-II-73, MP-III-022, and SHI-I-048A (as internal standard), respectively. The Thermo Xcalibur 2.1 software was used for data acquisition.

≈ marks a conversion by molar mass, not a printed value. Entries after “also recorded” stand apart in the source; their conditions may differ.

On to `C#Cc1ccc2c(c1)C(c1ccccc1F)=N[C@H](C)c1c(C(=O)N(C)C)ncn1-2` [GL-II-73], for which the “availability in the brain (AUC0–36) higher after nanoemulsion compared to the solution” value in series [1] turned out to be 24%. Also, the “sum of brain AUC0-36 values for the parent molecule and its metabolite, nanoformulation compared to the solution” value in series [1] (systemic administration) is “one-third higher”. The “Permeability of GL-II-73 through the BBB, nanoemulsion relative to solution” value in series [2] is given as “twice as high; also recorded: more than twofold higher”. The solubility (commonly the dissolved amount per volume that the medium holds) in series [3] (MCT, oil or lipid) is 4.49 ± 0.148 mg/mL (≈ 11.6 mM); in series [3] (aqueous buffer, Phosphate buffer (pH 7.4)), 0.951 ± 0.0414 mg/mL (≈ 2.46 mM); in series [3] (benzyl alcohol, organic solvent or mixture), > 534 mg/mL; in series [3] (castor oil, oil or lipid) it was 2.82 ± 0.184 mg/mL (≈ 7.3 mM); in series [3] (fish oil, oil or lipid), 2.4 ± 0.331 mg/mL (≈ 6.2 mM); in series [3] (isopropanol, organic solvent or mixture), 131 mg/mL (≈ 339 mM). In addition, the solubility was > 1470 mg/mL in series [3] (methanol, organic solvent or mixture); 5.37 ± 0.195 mg/mL (≈ 13.9 mM) in series [3] (simulated gastric fluid, 0.1 M HCl (pH 1.2)); 3.06 ± 0.137 mg/mL (≈ 7.91 mM) in series [3] (soybean oil, oil or lipid); 1 ± 0.0399 mg/mL (≈ 2.59 mM) in series [3] (Water (pH 5.2)).

Turning to `C#Cc1ccc2c(c1)C(c1ccccc1F)=N[C@H](C)c1c(C(=O)NC)ncn1-2` [MP-III-022], the figures for the “AUC 0-36” value in series [1] (metabolite MP-III-022 after 10 mg/kg GL-II-73 nanoemulsion NE4 i.p.) and in series [1] (metabolite MP-III-022 after 10 mg/kg GL-II-73 solution i.p.) were 167.36 ± 70.56 ng·h/g and 103.75 ± 2.05 ng·h/g, respectively. Also, in series [1], the “availability in the brain (AUC0–36) higher after nanoemulsion compared to the solution” value amounted to 61%.
